The values below are quoted from earlier work in US6251886A, “Methods of using temozolomide in the treatment of cancers” (priority 1999, dated 2001).

“Also recorded” adds a separate entry of the source. Where two headings read alike, the source gives them in different places.

The conditions of data set [1]: clinical trials.
For data set [2] the following is noted: known property.
For data set [3] the following is noted: systemic temozolomide, rat.
The conditions of data set [4]: common, but tolerable.
For a further data set, the system named is human CNS xenografts. Particulars: s.c. in athymic nude mice.
For data set [5], the system named is advanced melanoma. Conditions: Phase I, patients with advanced melanoma.
The conditions of data set [6]: systemic temozolomide, Rhesus monkeys.
The test system of data set [7] is advanced melanoma. Particulars: Phase II, 60 patients with advanced melanoma.
Assay in data set [8]: not given
The source holds these as a separate data set.

The conditions of data set [9]: oral therapy.
The subject of the next data set is murine tumors. Particulars: mouse, in vivo.
For a further data set, the system named is brain tumors. Conditions: clinical trials, vs adjuvant BCNU.
Data set [10] concerns D456-MG human glioma xenograft.
In data set [11] the test system is leptomeningeal medulloblastoma and pineoblastoma. Particulars: i.t., Phase I.
Setting [12] is: Phase I, single-dose i.v. and oral.

Regarding `NC(=O)c1ncn2c(=O)n(CCCl)nnc12` [mitozolomide], in data set [1], the thrombocytopenia entry is “severe and unpredictable thrombocytopenia”.
`Cn1nnc2c(C(N)=O)ncn2c1=O` [temozolomide, 3,4-dihydro-3-methyl-4-oxoimidazo-[5,1-d]-1,2,3,4-tetrazin-8-carboximide]: the “solubility (in words)” value in data set [2] is “marked insolubility; also recorded: poor solubility”. The “penetration into the CSF (CSF to plasma AUC zero to infinity ratio)” value is 41% to 44 in data set [3] and 29.8% in data set [6]. In addition, in [4], the side effect entry was “nausea and vomiting”. Further, the “activity against human CNS xenografts” value in the data set on human CNS xenografts is “activity of temozolomide against a series of human CNS xenografts”. In addition, in the data set with advanced melanoma [5], the clinical responses is listed as 17%. Also, the dose-limiting toxicity entry by setting is: (Phase I and II, five-day regimen) “dose-limiting myelosuppression; also recorded: dose-limiting stem cell toxicity”; under setting [12], “dose-limiting myelosuppression”. For the same compound, the anti-neoplastic activity entry (Phase I and II, five-day regimen, including high-grade glioma) is “intriguing anti-neoplastic activity”. The antineoplastic activity result under setting [12] is “trivial antineoplastic activity”. Further, the clinical response in the data set on advanced melanoma [7] is 21%. Besides, the “effective concentration in vitro” value in data set [8] is given as 0.1 mM. For the same compound, the peak serum concentrations result in data set [9] is on record as “approximately 10 mg/L”. Besides, the “activity against murine tumors” value with murine tumors is reported as “activity against a spectrum of murine tumors”.
Turning to `CNNCc1ccc(C(=O)NC(C)C)cc1` [procarbazine], the “activity against brain tumors” value in the data set on brain tumors is recorded as “results comparable to adjuvant BCNU”.
As for `Cn1nnc2c(C(N)=O)ncn2c1=O` [microcrystalline temozolomide], the “sensitivity to BCNU” value in the data set with Mer- human MG xenograft is listed as “BCNU-sensitive”. Moreover, in data set [10], the “resistance of D456 to BCNU” value is reported as “BCNU-resistant”.
Consider `O=NN(CCCl)C(=O)NCCCl` [BCNU, 1,3-bis(2-chloroethyl)-1-nitrosourea], for which, in [10], the “resistance of D456 to BCNU” value is given as “resistant”.
As for `N[C@@H](Cc1ccc(N(CCCl)CCCl)cc1)C(=O)O` [melphalan], the activity in patients entry in [11] is “activity has been seen in patients with leptomeningeal medulloblastoma and pineoblastoma”.
